The target of the assay is PDE4D7 (Homo sapiens (Human), UniProt Q08499). The following applies: read-out: PDE4D7 IC50.

pIC50: −log10 of the molar value. Where a name gives a salt, the structure may show the parent alone. Read-outs that look alike come from different tables or passages of the source.

PDE4D7, sequence (Q08499 other isoform, or with tags, fused parts or gaps): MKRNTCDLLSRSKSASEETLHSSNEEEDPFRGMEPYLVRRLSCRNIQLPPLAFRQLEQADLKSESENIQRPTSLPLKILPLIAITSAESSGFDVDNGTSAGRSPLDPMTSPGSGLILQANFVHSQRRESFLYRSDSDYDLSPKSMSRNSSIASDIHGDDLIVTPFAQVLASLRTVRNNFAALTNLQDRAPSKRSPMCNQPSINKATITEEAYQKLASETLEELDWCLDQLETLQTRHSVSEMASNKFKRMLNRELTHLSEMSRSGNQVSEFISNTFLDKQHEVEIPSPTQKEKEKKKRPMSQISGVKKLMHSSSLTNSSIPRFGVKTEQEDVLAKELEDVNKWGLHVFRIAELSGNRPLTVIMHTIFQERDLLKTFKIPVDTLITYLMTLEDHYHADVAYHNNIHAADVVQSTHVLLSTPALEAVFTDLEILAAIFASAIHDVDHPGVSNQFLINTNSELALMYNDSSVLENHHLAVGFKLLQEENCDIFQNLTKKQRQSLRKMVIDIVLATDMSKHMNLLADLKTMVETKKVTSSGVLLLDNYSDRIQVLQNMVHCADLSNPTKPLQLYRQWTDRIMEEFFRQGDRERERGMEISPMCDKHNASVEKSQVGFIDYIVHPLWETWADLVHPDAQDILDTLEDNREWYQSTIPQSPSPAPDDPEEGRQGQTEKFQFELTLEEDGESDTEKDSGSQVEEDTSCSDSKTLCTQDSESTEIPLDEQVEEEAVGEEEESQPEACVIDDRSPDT

For orientation: pIC50 means the IC50 on a negative log10 scale, so that one unit is a factor of ten. As for `CCc1nc(Nc2ccc(F)cc2)nc(-c2ccc(Cl)s2)n1` [Example 28, 4-(5-chlorothiophen-2-yl)-6-ethyl-N-(4-fluorophenyl)-1,3,5-triazin-2-amine], the pIC50 (PDE4D7 without asterisk) is under 6.00.

As to `NC(=O)Cc1ccc(Cc2cc(C(F)(F)F)nc(-c3cccc(Cl)c3)n2)cc1` [Example 204, 2-(4-((2-(3-Chlorophenyl)-6-(trifluoromethyl)pyrimidin-4-yl)methyl)phenyl)acetamide], where the note is “PDE4D7 without asterisk”, the pIC50 is under 6.00.

Take `CCNC(=O)Cc1ccc(Nc2nc(-c3ccc(Cl)s3)nc(C)c2CC)cc1` [Example 309, 2-[4-[[2-(5-Chloro-2-thienyl)-5-ethyl-6-methyl-pyrimidin-4-yl]amino]phenyl]-N-ethyl-acetamide]: the negative logarithm of the IC50 (pIC50) (PDE4D7 without asterisk) is over 6.00. Same read-out and setting: the same measure for `CCc1cc(Cc2ccc(CC(=O)O)cc2)nc(-c2cccc(Cl)c2)n1` [Example 66, 2-(4-((2-(3-chlorophenyl)-6-ethylpyrimidin-4-yl)methyl)phenyl)acetic acid]: under 6.00; for `CCCc1nc(Nc2ccc(C(=O)O)cc2)nc(-c2ccc(Cl)s2)n1` [Example 33, 4-((4-(5-chlorothiophen-2-yl)-6-propyl-1,3,5-triazin-2-yl)amino)benzoic acid]: under 6.00. `CCc1nc(Nc2ccc(CC(=O)O)cc2)nc(-c2ccc(Cl)s2)n1` [Example 27, 2-(4-((4-(5-chlorothiophen-2-yl)-6-ethyl-1,3,5-triazin-2-yl)amino)phenyl)acetic acid]: the pIC50 (PDE4D7 without asterisk) is under 6.00. On to `CC(C)c1nc(Nc2ccc(C(=O)O)cc2)nc(-c2ccc(Cl)s2)n1` [Example 29, 4-(4-(5-chlorothiophen-2-yl)-6-isopropyl-1,3,5-triazin-2-ylamino)benzoic acid], for which, for the setting “PDE4D7 without asterisk”, the negative-log IC50 (pIC50) was over 6.00. With `NC(=O)CCCc1ccc(Nc2cc(-c3cccc(Cl)c3)nc3c2CCC3)cc1` [Example 130, 4-(4-((2-(3-Chlorophenyl)-6,7-dihydro-5H-cyclopenta[b]pyridin-4-yl)amino)phenyl)butanamide hydrochloride], the pIC50 (PDE4D7 without asterisk) was under 6.00. Consider `OCCc1ccc(Nc2cc(C3CC3)nc(-c3cccc(Cl)c3)n2)nc1` [Example 214], for which the pIC50 (PDE4D7 without asterisk) is under 6.00.

Regarding `O=C(O)c1ccc(Nc2cc(-c3cccc(Cl)c3)nc3c2CCC3)cc1` [Example 5, 4-[[2-(3-Chlorophenyl)-6,7-dihydro-5H-cyclopenta[b]pyridin-4-yl]amino]benzoic acid], the pIC50 (PDE4D7 without asterisk) was under 6.00. For the compound `COC(=O)Cc1ccc(Nc2nc(Cl)nc(-c3ccc(Cl)s3)n2)cc1` [Example 35, methyl 2-(4-((4-chloro-6-(5-chlorothiophen-2-yl)-1,3,5-triazin-2-yl)amino)phenyl)acetate], under “PDE4D7 without asterisk”, the pIC50 was under 6.00.

`CCc1c(C)nc(-c2ccc(Cl)s2)nc1Nc1ccc(CC(=O)NC)cc1` [Example 308, 2-[4-[[2-(5-Chloro-2-thienyl)-5-ethyl-6-methyl-pyrimidin-4-yl]amino]phenyl]-N-methyl-acetamide]: the pIC50 (PDE4D7 without asterisk) is under 6.00. On to `Cc1nc(Nc2ccc(CC(=O)O)cc2)nc(-c2ccco2)n1` [Example 24, 2-(4-((4-(furan-2-yl)-6-methyl-1,3,5-triazin-2-yl)amino)phenyl)acetic acid], for which, under “PDE4D7 without asterisk”, the pIC50 was under 6.00. On to `CCc1cc(Oc2ccc(CCO)cc2)nc(-c2cccc(Cl)c2)n1` [Example 182, 2-(4-((2-(3-Chlorophenyl)-6-ethylpyrimidin-4-yl)oxy)phenyl)ethanol], for which the pIC50 was over 6.00. Take `FC(F)(F)c1cc(Cc2ccc(Cn3cc(Cl)cn3)cc2)nc(-c2cccc(Cl)c2)n1` [Example 218, 4-(4-((4-Chloro-1H-pyrazol-1-yl)methyl)benzyl)-2-(3-chlorophenyl)-6-(trifluoromethyl)pyrimidine]: under “PDE4D7 without asterisk”, the pIC50 is under 6.00.

Turning to `CCc1nc(Nc2ccc(CC(=O)O)cc2)nc(-c2cccc(Cl)c2)n1` [Example 39, 2-(4-((4-(3-chlorophenyl)-6-ethyl-1,3,5-triazin-2-yl)amino)phenyl)acetic acid], the pIC50 (PDE4D7 without asterisk) was under 6.00. With `OCCc1ccc(Nc2cc(N3CCNCC3)nc3c2CCC3)cc1` [Example 238, 2-(4-((2-(Piperazin-1-yl)-6,7-dihydro-5H-cyclopenta[b]pyridin-4-yl)amino)phenyl)ethanol hydrochloride], the pIC50 (PDE4D7 without asterisk) was under 6.00. For the compound `OCCc1ccc(Nc2cc(-c3cccc(Cl)c3)nc(C(F)(F)F)c2)cc1` [Example 146, 2-(4-((2-(3-Chlorophenyl)-6-(trifluoromethyl)pyridin-4-yl)amino)phenyl)ethanol], the pIC50 (PDE4D7 without asterisk) is over 6.00.

As to `NC(=O)Cc1ccc(Nc2cc(-c3ccc[nH]3)nc3c2CCC3)cc1` [Example 133, 2-(4-((2-(1H-Pyrrol-2-yl)-6,7-dihydro-5H-cyclopenta[b]pyridin-4-yl)amino)phenyl)acetamide hydrochloride], the pIC50 (PDE4D7 without asterisk) is under 6.00. Consider `NC(=O)Cc1ccc(Nc2cc(-c3ccsc3)nc3c2CCC3)cc1` [Example 244, 2-(4-((2-(Thiophen-3-yl)-6,7-dihydro-5H-cyclopenta[b]pyridin-4-yl)amino)phenyl)acetamide], for which, where the note is “PDE4D7 without asterisk”, the pIC50 was under 6.00.

With `NC(=O)Cc1ccc(Cc2cc(C3CC3)nc(-c3cccc(Cl)c3)n2)cc1` [Example 209, 2-(4-((2-(3-chlorophenyl)-6-cyclopropylpyrimidin-4-yl)methyl)phenyl)acetamide], under “PDE4D7 without asterisk”, the pIC50 was under 6.00.

`CCc1cc(Cc2ccc(C(C)(C)CO)cc2)nc(-c2cccc(Cl)c2)n1` [Example 197, 2-(4-((2-(3-Chlorophenyl)-6-ethylpyrimidin-4-yl)methyl)phenyl)-2-methylpropan-1-ol]: the pIC50 (PDE4D7 without asterisk) is under 6.00.

Take `NC(=O)Cc1ccc(Nc2cc(-c3cc(Cl)ccc3Cl)nc3c2CCC3)cc1` [Example 155, 2-(4-((2-(2,5-Dichlorophenyl)-6,7-dihydro-5H-cyclopenta[b]pyridin-4-yl)amino)phenyl)acetamide hydrochloride]: under “PDE4D7 without asterisk”, the pIC50 is under 6.00. For the compound `CC(C)Oc1cc(Nc2ccc(CC(N)=O)cc2)c2c(n1)CCC2` [Example 261, 2-(4-((2-Isopropoxy-6,7-dihydro-5H-cyclopenta[b]pyridin-4-yl)amino)phenyl)acetamide hydrochloride], the negative logarithm of the IC50 (pIC50) (PDE4D7 without asterisk) was under 6.00. `OCCc1ccc(Nc2cc(C3=CCCC3)nc3c2CCC3)cc1` [Example 248, 2-(4-((2-(Cyclopent-1-en-1-yl)-6,7-dihydro-5H-cyclopenta[b]pyridin-4-yl)amino)phenyl)ethanol hydrochloride]: the pIC50 (PDE4D7 without asterisk) is under 6.00.

`C[C@H](O)Cc1ccc(Nc2nc(-c3cccc(Cl)c3)nc3c2CCC3)cc1` [Example 173, (S)-1-(4-((2-(3-Chlorophenyl)-6,7-dihydro-5H-cyclopenta[d]pyrimidin-4-yl)amino)phenyl)propan-2-ol]: where the note is “PDE4D7 without asterisk”, the pIC50 is under 6.00. Consider `NC(=O)Cc1ccc(Nc2cc(C(F)(F)F)nc(-c3cccc(Cl)c3)n2)cc1` [Example 220, 2-(4-((2-(3-Chlorophenyl)-6-(trifluoromethyl)pyrimidin-4-yl)amino)phenyl)acetamide], for which the pIC50 (PDE4D7 without asterisk) was over 6.00. Same read-out and setting: to `CCc1nc(Nc2ccc(CCO)cc2)nc(-c2cccc(Cl)c2)n1` [Example 58, 2-(4-(4-(3-chlorophenyl)-6-ethyl-1,3,5-triazin-2-ylamino)phenyl)ethanol] belongs over 6.00; to `OCCc1ccc(Nc2nc(-c3cccc(Cl)c3)nc3c2CCCC3)cc1` [Example 235, 2-(4-((2-(3-Chlorophenyl)-5,6,7,8-tetrahydroquinazolin-4-yl)amino)phenyl)ethanol], over 6.00.

(Values after US11401286B2 (Tetra Discovery Partners, LLC, priority 2012, dated 2022).)
